Several values for one entry are separate records, joined by “and”; a condition that tells them apart may be missing. Equal values may be shown once. Toxic doses and inconclusive results are not listed. How the source made its calls: active means survival T/C of 150% or more; inactive means T/C below 125% in these data.
Test system: BDF1 mice, B16 melanoma ip, median survival T/C
Experiment: NCI In Vivo Anticancer Drug Screen. Data for tumor model B16 Melanoma (intraperitoneal) in B6D2F1 (BDF1) mice
Conditions: endpoint: median survival time, higher = longer survival
How it was run: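 Tumor-bearing mice received test compound or vehicle. Survival or tumor size was then measured in both groups. The treated-group figure was divided by the control-group figure.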

[1] = dose: 25.0 mg/kg/injection, schedule: Q01DX009 (ip), vehicle: saline with Tween-80
[2] = dose: 6.25 mg/kg/injection, schedule: Q01DX009 (ip), vehicle: Klucel (hydroxypropylcellulose) (HPC)
[3] = dose: 12.5 mg/kg/injection, schedule: Q01DX009 (ip), vehicle: Klucel (hydroxypropylcellulose) (HPC)
[4] = dose: 25.0 mg/kg/injection, schedule: Q01DX009 (ip), vehicle: Klucel (hydroxypropylcellulose) (HPC)
[5] = dose: 100.0 mg/kg/injection, schedule: Q01DX009 (ip), vehicle: Klucel (hydroxypropylcellulose) (HPC)
[6] = dose: 400.0 mg/kg/injection, schedule: Q01DX009 (ip), vehicle: Klucel (hydroxypropylcellulose) (HPC)
[7] = dose: 50.0 mg/kg/injection, schedule: Q01DX009 (ip), vehicle: saline
[8] = dose: 100.0 mg/kg/injection, schedule: Q01DX009 (ip), vehicle: saline
[9] = dose: 50.0 mg/kg/injection, schedule: Q01DX009 (ip), vehicle: Klucel (hydroxypropylcellulose) (HPC)
[10] = dose: 200.0 mg/kg/injection, schedule: Q01DX009 (ip), vehicle: Klucel (hydroxypropylcellulose) (HPC)
[11] = dose: 12.5 mg/kg/injection, schedule: Q01DX009 (ip), vehicle: saline
[12] = dose: 25.0 mg/kg/injection, schedule: Q01DX009 (ip), vehicle: saline
[13] = dose: 10.0 mg/kg/injection, schedule: Q01DX009 (ip), vehicle: saline
[14] = dose: 20.0 mg/kg/injection, schedule: Q01DX009 (ip), vehicle: saline

Measured: T/C

O=[N+]([O-])c1cccc(N=Cc2ccccc2)c1
inactive: dose: 66.0 mg/kg/injection, schedule: Q01DX009 (ip), vehicle: Klucel (hydroxypropylcellulose) (HPC) 102 % of control | dose: 150.0 mg/kg/injection, schedule: Q01DX009 (ip), vehicle: Klucel (hydroxypropylcellulose) (HPC) 122 % of control

CCCC[P+](CCCC)(CCCC)C(C)C
inactive: dose: 12.5 mg/kg/injection, schedule: Q01DX009 (ip), vehicle: saline with Tween-80 106 % of control | [1] 104 % of control

CCN(CC)CCCNC(=S)NC(C)(C)CC(C)=O
inactive: dose: 75.0 mg/kg/injection, schedule: Q04DX003 (ip), vehicle: Klucel (hydroxypropylcellulose) (HPC) 95 % of control | dose: 150.0 mg/kg/injection, schedule: Q04DX003 (ip), vehicle: Klucel (hydroxypropylcellulose) (HPC) 92 % of control | dose: 300.0 mg/kg/injection, schedule: Q04DX003 (ip), vehicle: Klucel (hydroxypropylcellulose) (HPC) 95 % of control

Cc1c(Cl)cccc1NC(=O)Oc1cc(Cl)c(Cl)cc1Cl
inactive: [2] 96 % of control | [3] 98 % of control | [4] 89 % of control and 98 % of control

O=C(NC1CCCCC1)Oc1ccccc1-c1ccccc1
inactive: [5] 88 % of control | [6] 100 % of control

NC(CCC(=O)NC(CS)C(=O)NCC(=O)O)C(=O)O (stereo not drawn)
inactive: [7] 124 % of control | [8] 98 % of control | dose: 200.0 mg/kg/injection, schedule: Q01DX009 (ip), vehicle: saline 98 % of control | dose: 400.0 mg/kg/injection, schedule: Q01DX009 (ip), vehicle: saline 100 % of control

CCCC[N+](CCCC)(CCCC)CCCC.Cc1ccc([SH2+])c([SH2+])c1.Cc1ccc([SH2+])c([SH2+])c1.[Fe+3]
inactive: [4] 93 % of control | [1] 97 % of control | [9] 99 % of control | dose: 50.0 mg/kg/injection, schedule: Q01DX009 (ip), vehicle: saline with Tween-80 98 % of control | [5] 93 % of control | dose: 100.0 mg/kg/injection, schedule: Q01DX009 (ip), vehicle: saline with Tween-80 103 % of control | [10] 93 % of control | dose: 200.0 mg/kg/injection, schedule: Q01DX009 (ip), vehicle: saline with Tween-80 98 % of control

N=P(N[P+](N)(c1ccccc1)c1ccccc1)(c1ccccc1)c1ccccc1
inactive: dose: 1.56 mg/kg/injection, schedule: Q01DX009 (ip), vehicle: Klucel (hydroxypropylcellulose) (HPC) 101 % of control | dose: 3.12 mg/kg/injection, schedule: Q01DX009 (ip), vehicle: Klucel (hydroxypropylcellulose) (HPC) 107 % of control | [2] 108 % of control

NC(CO)C(O)c1ccc([N+](=O)[O-])cc1 (stereo not drawn)
inactive: dose: 100.0 mg/kg/injection, schedule: Q04DX003 (ip), vehicle: Klucel (hydroxypropylcellulose) (HPC) 97 % of control | dose: 200.0 mg/kg/injection, schedule: Q04DX003 (ip), vehicle: Klucel (hydroxypropylcellulose) (HPC) 95 % of control | dose: 400.0 mg/kg/injection, schedule: Q04DX003 (ip), vehicle: Klucel (hydroxypropylcellulose) (HPC) 86 % of control

Cn1c(=O)c2[nH]c(Cc3cccc(O)c3)nc2n(C)c1=O
inactive: dose: 3.12 mg/kg/injection, schedule: Q01DX009 (ip), vehicle: suspension in saline 94 % of control | dose: 6.25 mg/kg/injection, schedule: Q01DX009 (ip), vehicle: suspension in saline 96 % of control | dose: 100.0 mg/kg/injection, schedule: Q01DX009 (ip), vehicle: suspension in saline 94 % of control

NC(=O)c1ccccc1NC(=O)c1ccccc1Cl
inactive: [5] 100 % of control | [10] 97 % of control | [6] 102 % of control

O=C(O)c1cc2ccccc2cn1
inactive: [7] 102 % of control | [8] 100 % of control

CCCC1CCC(=C2C(=O)CCC2=O)O1 (stereo not drawn)
inactive: dose: 3.13 mg/kg/injection, schedule: Q01DX009 (ip), vehicle: saline 102 % of control | dose: 6.25 mg/kg/injection, schedule: Q01DX009 (ip), vehicle: saline 100 % of control | [11] 91 % of control | [12] 89 % of control

COc1cc(NC(=O)CC(C)=O)cc2c(C)cc(=O)n(C)c12
inactive: [5] 96 % of control | [10] 100 % of control | [6] 100 % of control

c1ccc(CN2CCOC2)cc1
inactive: [11] 115 % of control | [12] 111 % of control | [7] 122 % of control | [8] 111 % of control

O=c1oc(-c2ccco2)nc2ccccc12
inactive: [9] 112 % of control | [5] 106 % of control | [10] 112 % of control

NC(=S)N/N=C/c1ccc(C(F)(F)F)cn1
inactive: dose: 8.8 mg/kg/injection, schedule: Q01DX009 (ip), vehicle: Klucel (hydroxypropylcellulose) (HPC) 106 % of control | dose: 13.3 mg/kg/injection, schedule: Q01DX009 (ip), vehicle: Klucel (hydroxypropylcellulose) (HPC) 108 % of control | dose: 20.0 mg/kg/injection, schedule: Q01DX009 (ip), vehicle: Klucel (hydroxypropylcellulose) (HPC) 109 % of control

CCN=C=NCCCN(C)C
inactive: [13] 92 % of control | [14] 92 % of control | dose: 40.0 mg/kg/injection, schedule: Q01DX009 (ip), vehicle: saline 97 % of control | dose: 80.0 mg/kg/injection, schedule: Q01DX009 (ip), vehicle: saline 94 % of control

COc1cccc(C2CCN(C)C2)c1 (stereo not drawn)
inactive: [2] 89 % of control | [3] 100 % of control | [4] 100 % of control

CCOP(=O)(N1CC1(C)C)N1CC1(C)C (stereo not drawn)
inactive: dose: 5.0 mg/kg/injection, schedule: Q01DX009 (ip), vehicle: saline 109 % of control | [13] 104 % of control | [14] 109 % of control | dose: 30.0 mg/kg/injection, schedule: Q01DX009 (ip), vehicle: saline 118 % of control

Cc1cccc(C2=NCCN2)c1C
inactive: dose: 5.0 mg/kg/injection, schedule: Q04DX003 (ip), vehicle: saline with Tween-80 116 % of control | dose: 20.0 mg/kg/injection, schedule: Q04DX003 (ip), vehicle: saline with Tween-80 116 % of control

Reference: PubChem BioAssay AID192 (DTP/NCI, 2004)
